The values below come from US12606541B2, “PPARg modulators and methods of use” (Eisai R&D Management Co., Ltd., priority 2020, dated 2026).

Where two headings read alike, the source gives them in different places.

The target of one assay is T1, His6-TEV-PPARγ-(234-505) (Homo sapiens, UniProt P37231).
T1 construct: The His6-TEV-PPARγ-(234-505) protein for assay was expressed and purified; TEV cleavage site (N); made in house
T1 sequence (P37231 234-505): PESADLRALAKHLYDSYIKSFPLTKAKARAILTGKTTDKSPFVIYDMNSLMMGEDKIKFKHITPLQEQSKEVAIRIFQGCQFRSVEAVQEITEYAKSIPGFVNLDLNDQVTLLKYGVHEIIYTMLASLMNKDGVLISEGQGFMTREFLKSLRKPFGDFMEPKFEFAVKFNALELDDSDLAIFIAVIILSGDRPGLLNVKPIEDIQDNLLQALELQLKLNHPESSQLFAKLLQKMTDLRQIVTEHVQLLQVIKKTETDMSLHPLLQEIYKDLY
Nature of the assay: TR-FRET Assay to Measure Co-R Peptide Recruitment to PPARγ. The class given is biochemical. Particulars: Co-R peptide (SMRT-ID2) recruitment; top final concentration 20 μM; read-out: TR-FRET i-Ag; AC50. The essentials:
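His-tagged PPARγ (or controls) was preincubated with compound for 20 minutes at room temperature, then 5 nM anti-His terbium antibody and 200 nM FITC-labeled SMRT-ID2 corepressor peptide (final) were added for a further hour. TR-FRET signal was normalized to percent response using 500 nM T0070907 and DMSO controls.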

The test system of another assay is UM-UC-9 engineered cells. Put plainly: Cell proliferation / short-term viability assay, CellTiter-Glo 144 h. The class given is cell-based, human. Particulars: read-out: CTGlo 144 h UMUC9.5, G150. The essentials:
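UM-UC-9 engineered assay-ready cells seeded at 500 cells/well in high-glucose DMEM/10% FBS, treated from dose-response plates, grown at 37° C, 5% CO2. CellTiter-Glo 2.0 luminescence read on day 7, with a day-0 pretreatment plate as T0 reference and DMSO wells as negative control.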
(ATP-based viability assays read luminescence as a measure of living cells.)

Turning to `N#Cc1cc(-c2cc(C(=O)N3CCC(C(=O)NC4CCC(O)(C(F)(F)F)CC4)CC34CC4)n[nH]2)ncn1` (racemic) [Example 528, (R)-4-(5-(6-cyanopyrimidin-4-yl)-1H-pyrazole-3-carbonyl)-N-((1r,4R)-4-hydroxy-4-(trifluoromethyl)cyclohexyl)-4-azaspiro[2.5]octane-7-carboxamide and (S)-4-(5-(6-cyanopyrimidin-4-yl)-1H-pyrazole-3-carbonyl)-N-((1r,4S)-4-hydroxy-4-(trifluoromethyl)cyclohexyl)-4-azaspiro[2.5]octane-7-carboxamide], the AC50 at His6-TEV-PPARγ-(234-505) turned out to be 6 nM. Also, the IC50 in the assay on UM-UC-9 engineered cells is 479 nM.

Consider `COc1cc(-c2cc(C(=O)N3CC[C@H](C(=O)NC4CCC(C(F)(F)F)C(O)C4)CC34CC4)n[nH]2)c(F)cn1` (single isomer, unassigned) [Example 501-B], for which, at His6-TEV-PPARγ-(234-505), the AC50 was found to be 51.1 nM. In addition, the IC50 in the assay with UM-UC-9 engineered cells was determined as 258 nM.

For the molecule `COc1cc(-c2cc(C(=O)N3CCC(C(=O)NCc4cncc(Cl)c4)CC3)n[nH]2)c(Cl)cn1` [Example 179, 1-(5-(5-chloro-2-methoxypyridin-4-yl)-1H-pyrazole-3-carbonyl)-N-((5-chloropyridin-3-yl)methyl)piperidine-4-carboxamide], the AC50 on His6-TEV-PPARγ-(234-505) was determined as 321 nM. Moreover, the IC50 in the assay on UM-UC-9 engineered cells (Homo sapiens, UM-UC-9, 144 h) was 1530 nM.

In the case of `COc1cc(-c2cc(C(=O)N3CCC(C(=O)NCc4ccc5[nH]nc(F)c5c4)CC3)n[nH]2)c(F)cn1` [Example 200, N-((3-fluoro-1H-indazol-5-yl)methyl)-1-(5-(5-fluoro-2-methoxypyridin-4-yl)-1H-pyrazole-3-carbonyl)piperidine-4-carboxamide], at His6-TEV-PPARγ-(234-505), the AC50 was determined as 112 nM. Further, in the assay on UM-UC-9 engineered cells (Homo sapiens, UM-UC-9, 144 h), the IC50 is 71.5 nM.

As to `COc1cc(-c2cc(C(=O)N3CCC(C(=O)NC4CCC(O)(C(F)(F)F)CC4)CC34CC4)n[nH]2)c(F)cn1` (mixture of isomers) [Example 169, (R)-4-(5-(5-fluoro-2-methoxypyridin-4-yl)-1H-pyrazole-3-carbonyl)-N-((1r,4R)-4-hydroxy-4-(trifluoromethyl)cyclohexyl)-4-azaspiro[2.5]octane-7-carboxamide and (S)-4-(5-(5-fluoro-2-methoxypyridin-4-yl)-1H-pyrazole-3-carbonyl)-N-((1r,4S)-4-hydroxy-4-(trifluoromethyl)cyclohexyl)-4-azaspiro[2.5]octane-7-carboxamide], the AC50 on His6-TEV-PPARγ-(234-505) was 4.5 nM. In the assay on UM-UC-9 engineered cells, the IC50 is 2.1 nM.

As for `COc1cc(-c2cc(C(=O)N3CC[C@H](C(=O)NC4CCC5(CCCN5CC(C)(F)F)CC4)CC34CC4)n[nH]2)c(F)cn1` (stereo partly drawn) [Example 351, (S)—N-(1-(2,2-difluoropropyl)-1-azaspiro[4.5]decan-8-yl)-4-(5-(5-fluoro-2-methoxypyridin-4-yl)-1H-pyrazole-3-carbonyl)-41-azaspiro[2.5]octane-7-carboxamide], at His6-TEV-PPARγ-(234-505), the AC50 was determined as 256 nM. Besides, the IC50 in the assay on UM-UC-9 engineered cells (Homo sapiens, UM-UC-9, 144 h) is 450 nM.

With `COc1cc(-c2cc(C(=O)N3CC[C@H](C(=O)NCC45CCC(O)(C4)C5)CC34CC4)n[nH]2)c(F)cn1` [Example 334, (S)-4-(5-(5-fluoro-2-methoxypyridin-4-yl)-1H-pyrazole-3-carbonyl)-N-((4-hydroxybicyclo[2.1.1]hexan-1-yl)methyl)-4-azaspiro[2.5]octane-7-carboxamide], the AC50 at His6-TEV-PPARγ-(234-505) came to 72.6 nM. Also, in the assay on UM-UC-9 engineered cells (Homo sapiens, UM-UC-9, 144 h), the IC50 came to 284 nM.

For `COc1cc(-c2cc(C(=O)N3CCC(C(=O)Nc4cnn(C(C)C)c4)CC3)n[nH]2)c(Cl)cn1` [Example 205, 1-(5-(5-chloro-2-methoxypyridin-4-yl)-1H-pyrazole-3-carbonyl)-N-(1-isopropyl-1H-pyrazol-4-yl)piperidine-4-carboxamide], the AC50 at His6-TEV-PPARγ-(234-505) was 912 nM. In addition, the IC50 with UM-UC-9 engineered cells (Homo sapiens, UM-UC-9, 144 h) amounted to 3110 nM.

On to `COc1cc(-c2cc(C(=O)N3CCC(C(=O)NC4CCOc5ccc(C)nc54)CC34CC4)n[nH]2)c(F)cn1` (mixture of isomers) [Example 380, (S)-4-(5-(5-fluoro-2-methoxypyridin-4-yl)-1H-pyrazole-3-carbonyl)-N—((R)-6-methyl-3,4-dihydro-2H-pyrano[3,2-b]pyridin-4-yl)-4-azaspiro[2.5]octane-7-carboxamide and (S)-4-(5-(5-fluoro-2-methoxypyridin-4-yl)-1H-pyrazole-3-carbonyl)-N—((S)-6-methyl-3,4-dihydro-2H-pyrano[3,2-b]pyridin-4-yl)-4-azaspiro[2.5]octane-7-carboxamide], for which the AC50 at His6-TEV-PPARγ-(234-505) turned out to be 30.6 nM. In addition, in the assay with UM-UC-9 engineered cells, the IC50 worked out at 43.7 nM.

As for `CO[C@]1(C(F)(F)F)CC[C@@H](NC(=O)[C@H]2CCN(C(=O)c3cc(-c4cc(C)ncn4)[nH]n3)C3(CC3)C2)CC1` (single isomer, unassigned) [Example 309-A], at His6-TEV-PPARγ-(234-505), the AC50 turned out to be 2.9 nM. Also, in the assay on UM-UC-9 engineered cells (Homo sapiens, UM-UC-9, 144 h), the IC50 was 5.4 nM.

Consider `COc1cc(-c2cc(C(=O)N3CCC(C(=O)NCc4ccc(Cl)cn4)CC3)n[nH]2)c(Cl)cn1` [Example 120, 1-(5-(5-chloro-2-methoxypyridin-4-yl)-1H-pyrazole-3-carbonyl)-N-((5-chloropyridin-2-yl)methyl)piperidine-4-carboxamide], for which the AC50 on His6-TEV-PPARγ-(234-505) turned out to be 227 nM. In addition, the IC50 in the assay on UM-UC-9 engineered cells (Homo sapiens, UM-UC-9, 144 h) is 766 nM.

Take `COc1cc(-c2cc(C(=O)N3CCC(C(=O)NC4(C(F)(F)F)CCCC4)CC3)n[nH]2)c(Cl)cn1` [Example 162, 1-(5-(5-chloro-2-methoxypyridin-4-yl)-1H-pyrazole-3-carbonyl)-N-(1-(trifluoromethyl)cyclopentyl)piperidine-4-carboxamide]: the AC50 at His6-TEV-PPARγ-(234-505) was 588 nM. The IC50 with UM-UC-9 engineered cells (Homo sapiens, UM-UC-9, 144 h) came to 908 nM.

As for `COc1cc(-c2cc(C(=O)N3CC[C@@H](C(=O)N[C@H]4CC[C@@](O)(C(F)(F)F)CC4)CC34CC4)n[nH]2)c(Cl)cn1` (single isomer, unassigned) [Example 286-A], the AC50 on His6-TEV-PPARγ-(234-505) was determined as 304 nM. Moreover, the IC50 in the assay with UM-UC-9 engineered cells (Homo sapiens, UM-UC-9, 144 h) came to 460 nM.

On to “(S)-4-(5-(5-fluoro-2-methoxypyridin-4-yl)-1H-pyrazole-3-carbonyl)-N—(((S)-3-(trifluoromethyl)-5,6-dihydro-8H-[1,2,4]triazolo[3,4-c][1,4]oxazin-6-yl)methyl)-4-azaspiro[2.5]octane-7-carboxamide and (S)-4-(5-(5-fluoro-2-methoxypyridin-4-yl)-1H-pyrazole-3-carbonyl)-N—(((R)-3-(trifluoromethyl)-5,6-dihydro-8H-[1,2,4]triazolo[3,4-c][1,4]oxazin-6-yl)methyl)-4-azaspiro[2.5]octane-7-carboxamide [Example 357]”, for which, on His6-TEV-PPARγ-(234-505), the AC50 stood at 45.1 nM. For the same molecule, the IC50 in the assay with UM-UC-9 engineered cells is 2190 nM.

With `CO[C@]1(C(F)(F)F)CC[C@@H](NC(=O)[C@@H]2CCN(C(=O)c3cc(-c4cc(C)ncc4F)[nH]n3)C3(CC3)C2)CC1` (single isomer, unassigned) [Example 293-A], at His6-TEV-PPARγ-(234-505), the AC50 came to 281 nM. Besides, the IC50 with UM-UC-9 engineered cells (Homo sapiens, UM-UC-9, 144 h) worked out at 874 nM.

On to `COc1cc(-c2cc(C(=O)N3CCC(C(=O)NCc4ncc(C(F)(F)F)cn4)CC3)n[nH]2)c(Cl)cn1` [Example 211, 1-(5-(5-chloro-2-methoxypyridin-4-yl)-1H-pyrazole-3-carbonyl)-N-((5-(trifluoromethyl)pyrimidin-2-yl)methyl)piperidine-4-carboxamide], for which the AC50 on His6-TEV-PPARγ-(234-505) was 462 nM. Further, the IC50 in the assay with UM-UC-9 engineered cells (Homo sapiens, UM-UC-9, 144 h) was 3260 nM.

Turning to `COc1cc(-c2cc(C(=O)N3CCC(C(=O)NC4CCCc5nc(C)ncc54)CC3)n[nH]2)c(Cl)cn1` (racemic) [Example 224, 1-(5-(5-chloro-2-methoxypyridin-4-yl)-1H-pyrazole-3-carbonyl)-N-(2-methyl-5,6,7,8-tetrahydroquinazolin-5-yl)piperidine-4-carboxamide], the AC50 at His6-TEV-PPARγ-(234-505) was 554 nM. Moreover, the IC50 in the assay with UM-UC-9 engineered cells (Homo sapiens, UM-UC-9, 144 h) was 5180 nM.

With `CCOC1(C(F)(F)F)CCC(NC(=O)[C@@H]2C[C@H]3CC[C@@H](C2)N3C(=O)c2cc(-c3cc(OC)ncc3F)[nH]n2)CC1` (single isomer, unassigned) [Example 303-B], the AC50 at His6-TEV-PPARγ-(234-505) was determined as 29.8 nM. In the assay with UM-UC-9 engineered cells (Homo sapiens, UM-UC-9, 144 h), the IC50 amounted to 82 nM.

For the molecule `CC[C@H]1CC[C@@H](NC(=O)C2CCN(C(=O)c3cc(-c4ccnc(OC)c4)[nH]n3)CC2)CC1` (single isomer, unassigned) [Example 108-A, N-((1s,4s)-4-ethylcyclohexyl)-1-(5-(2-methoxypyridin-4-yl)-1H-pyrazole-3-carbonyl)piperidine-4-carboxamide], at His6-TEV-PPARγ-(234-505), the AC50 is 160 nM. For the same molecule, the IC50 with UM-UC-9 engineered cells (Homo sapiens, UM-UC-9, 144 h) is 674 nM.

Take `COc1cc(-c2cc(C(=O)N3CCC(C(=O)NCc4c(F)ccc5[nH]cnc45)CC3)n[nH]2)c(Cl)cn1` [Example 243, 1-(5-(5-chloro-2-methoxypyridin-4-yl)-1H-pyrazole-3-carbonyl)-N-((5-fluoro-1H-benzo[d]imidazol-4-yl)methyl)piperidine-4-carboxamide]: the AC50 at His6-TEV-PPARγ-(234-505) was 25.8 nM. In addition, the IC50 in the assay on UM-UC-9 engineered cells (Homo sapiens, UM-UC-9, 144 h) is 414 nM.

For the molecule `COc1cc(-c2cc(C(=O)N3CC[C@@H](C(=O)N[C@@H]4CCN(CC(C)(C)O)C4)CC34CC4)[nH]n2)c(F)cn1` [Example 344-A, (R)-4-(3-(5-fluoro-2-methoxypyridin-4-yl)-1H-pyrazole-5-carbonyl)-N—((R)-1-(2-hydroxy-2-methylpropyl)pyrrolidin-3-yl)-4-azaspiro[2.5]octane-7-carboxamide], the AC50 on His6-TEV-PPARγ-(234-505) is 14800 nM. In addition, the IC50 in the assay with UM-UC-9 engineered cells (Homo sapiens, UM-UC-9, 144 h) was greater than 10000 nM.
